In patent publication US20230139171A1 (SITA Information Networking Computing UK Limited, priority 2019, published 2023):
pIC50: −log10 of the molar value.

Columns and labels:
Assay type in all cases: cell-based
human TLR7 = target: T1, human TLR7 (Homo sapiens, UniProt Q9NYK1); experiment: TLR7 inhibition reporter assay (HEK-Blue cells, SEAP reporter, gardiquimod stimulation); conditions: HEK-Blue cells overexpressing human TLR7, SEAP reporter, gardiquimod 7.5 μM; read-out: TLR7 IC50
T1 construct: host or cells: HEK-Blue cells
T1 sequence (Q9NYK1 27-1049): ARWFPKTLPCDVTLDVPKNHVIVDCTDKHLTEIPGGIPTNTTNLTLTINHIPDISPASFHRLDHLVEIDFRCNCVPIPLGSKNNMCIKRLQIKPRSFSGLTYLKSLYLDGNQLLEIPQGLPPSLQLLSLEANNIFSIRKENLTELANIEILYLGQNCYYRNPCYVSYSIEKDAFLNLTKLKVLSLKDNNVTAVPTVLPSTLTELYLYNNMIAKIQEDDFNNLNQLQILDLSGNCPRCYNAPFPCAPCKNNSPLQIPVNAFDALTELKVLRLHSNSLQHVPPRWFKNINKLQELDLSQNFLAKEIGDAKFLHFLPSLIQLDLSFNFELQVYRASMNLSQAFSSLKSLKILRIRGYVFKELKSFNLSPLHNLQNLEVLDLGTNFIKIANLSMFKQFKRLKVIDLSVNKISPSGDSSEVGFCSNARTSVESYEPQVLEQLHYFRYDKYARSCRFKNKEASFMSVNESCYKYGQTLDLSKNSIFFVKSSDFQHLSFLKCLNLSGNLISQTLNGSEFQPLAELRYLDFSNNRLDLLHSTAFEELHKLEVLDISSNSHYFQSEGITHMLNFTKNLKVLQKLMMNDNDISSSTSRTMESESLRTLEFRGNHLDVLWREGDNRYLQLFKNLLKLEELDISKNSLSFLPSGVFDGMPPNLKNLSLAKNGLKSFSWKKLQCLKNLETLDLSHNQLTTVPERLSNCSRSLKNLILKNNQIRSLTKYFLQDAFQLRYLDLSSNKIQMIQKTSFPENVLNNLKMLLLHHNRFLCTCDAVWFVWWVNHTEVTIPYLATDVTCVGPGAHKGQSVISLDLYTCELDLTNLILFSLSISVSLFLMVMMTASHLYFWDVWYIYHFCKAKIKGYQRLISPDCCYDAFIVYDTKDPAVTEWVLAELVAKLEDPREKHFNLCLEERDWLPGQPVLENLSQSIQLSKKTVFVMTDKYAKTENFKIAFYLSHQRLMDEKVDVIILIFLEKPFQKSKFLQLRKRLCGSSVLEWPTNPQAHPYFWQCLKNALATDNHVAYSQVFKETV
Summary of the method: (§1)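 Compound treatment: 30 min, RT, 0.05 nM–50 μM final. Agonist: TLR7 gardiquimod 7.5 μM; TLR8 R848 15.9 μM; TLR9 ODN2006 5 nM. Incubation 22 h, 37 °C, 5% CO2. Readout SEAP, HEK-Blue Detection.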

human TLR8 = target: T2, human TLR8 (Homo sapiens, UniProt Q9NR97); experiment: TLR8 inhibition reporter assay (HEK-Blue cells, SEAP reporter, R848 stimulation); conditions: HEK-Blue cells overexpressing human TLR8, SEAP reporter, R848 15.9 μM; read-out: TLR8 IC50
T2 construct: host or cells: HEK-Blue cells
T2 sequence (Q9NR97 27-1041): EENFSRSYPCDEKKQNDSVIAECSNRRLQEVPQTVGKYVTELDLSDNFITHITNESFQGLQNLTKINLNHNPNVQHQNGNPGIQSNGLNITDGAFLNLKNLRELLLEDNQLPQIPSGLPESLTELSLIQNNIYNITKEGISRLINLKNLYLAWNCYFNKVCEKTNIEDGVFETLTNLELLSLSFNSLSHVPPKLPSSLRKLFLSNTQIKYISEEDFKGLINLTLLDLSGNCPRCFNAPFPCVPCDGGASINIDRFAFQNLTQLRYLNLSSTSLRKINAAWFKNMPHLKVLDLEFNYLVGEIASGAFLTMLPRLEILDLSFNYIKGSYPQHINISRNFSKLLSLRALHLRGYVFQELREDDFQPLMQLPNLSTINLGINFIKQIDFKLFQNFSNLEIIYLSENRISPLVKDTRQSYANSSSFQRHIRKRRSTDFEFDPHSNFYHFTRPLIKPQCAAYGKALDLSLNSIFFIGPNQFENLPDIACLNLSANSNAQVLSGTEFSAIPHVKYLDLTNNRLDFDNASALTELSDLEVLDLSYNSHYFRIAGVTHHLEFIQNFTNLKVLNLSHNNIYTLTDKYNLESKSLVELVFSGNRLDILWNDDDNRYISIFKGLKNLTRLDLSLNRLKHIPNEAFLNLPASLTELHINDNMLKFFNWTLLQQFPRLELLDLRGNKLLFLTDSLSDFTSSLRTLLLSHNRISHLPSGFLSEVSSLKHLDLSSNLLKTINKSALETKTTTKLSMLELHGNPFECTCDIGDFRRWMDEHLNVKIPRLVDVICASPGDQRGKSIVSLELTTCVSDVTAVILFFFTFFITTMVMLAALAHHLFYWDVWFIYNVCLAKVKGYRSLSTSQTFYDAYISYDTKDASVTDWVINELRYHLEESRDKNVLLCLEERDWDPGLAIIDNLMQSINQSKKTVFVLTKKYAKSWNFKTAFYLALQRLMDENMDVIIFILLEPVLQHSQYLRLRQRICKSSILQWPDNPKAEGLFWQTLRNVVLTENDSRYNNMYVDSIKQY
Summary of the method: as §1

human TLR9 = target: T3, human TLR9 (Homo sapiens, UniProt Q9NR96); experiment: TLR9 inhibition reporter assay (HEK-Blue cells, SEAP reporter, ODN2006 stimulation); conditions: HEK-Blue cells overexpressing human TLR9, SEAP reporter, ODN2006 5 nM
T3 construct: host or cells: HEK-Blue cells
T3 sequence (Q9NR96 26-1032): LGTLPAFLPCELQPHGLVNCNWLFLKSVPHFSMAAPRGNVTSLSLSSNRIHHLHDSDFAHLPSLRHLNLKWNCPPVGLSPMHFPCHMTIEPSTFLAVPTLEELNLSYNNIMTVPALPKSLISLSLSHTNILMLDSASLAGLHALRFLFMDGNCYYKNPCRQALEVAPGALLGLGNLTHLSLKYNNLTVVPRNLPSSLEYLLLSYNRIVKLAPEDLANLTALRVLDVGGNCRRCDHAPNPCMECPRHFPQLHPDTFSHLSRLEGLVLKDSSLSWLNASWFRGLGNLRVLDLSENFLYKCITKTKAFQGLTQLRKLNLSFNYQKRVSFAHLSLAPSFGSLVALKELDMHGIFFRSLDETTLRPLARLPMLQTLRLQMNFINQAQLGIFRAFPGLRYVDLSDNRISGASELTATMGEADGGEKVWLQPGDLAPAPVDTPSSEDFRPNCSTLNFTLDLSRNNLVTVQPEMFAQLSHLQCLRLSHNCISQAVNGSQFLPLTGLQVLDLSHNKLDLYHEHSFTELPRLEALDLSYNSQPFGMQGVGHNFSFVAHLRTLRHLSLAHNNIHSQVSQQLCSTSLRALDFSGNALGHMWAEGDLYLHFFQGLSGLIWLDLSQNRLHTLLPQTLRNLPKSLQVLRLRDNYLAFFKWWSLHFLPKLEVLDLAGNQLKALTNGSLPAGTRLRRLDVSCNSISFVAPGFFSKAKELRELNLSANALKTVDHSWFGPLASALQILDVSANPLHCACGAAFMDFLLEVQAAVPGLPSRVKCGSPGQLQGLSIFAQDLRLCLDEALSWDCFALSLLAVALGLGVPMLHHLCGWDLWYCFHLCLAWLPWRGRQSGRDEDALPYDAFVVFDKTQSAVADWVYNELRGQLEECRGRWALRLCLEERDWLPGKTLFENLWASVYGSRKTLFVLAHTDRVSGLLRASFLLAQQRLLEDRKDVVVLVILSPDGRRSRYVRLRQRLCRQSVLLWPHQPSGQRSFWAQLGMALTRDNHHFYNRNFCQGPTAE
Summary of the method: as §1

| Structure (SMILES) | pIC50 (human TLR7) | pIC50 (human TLR8) | pIC50 (human TLR9) |
| --- | --- | --- | --- |
| Cc1c(-c2[nH]c3sc(C4CCC(N5CC(O)(C(F)(F)F)C5)CC4)nc3c2C(C)C)cn(C)c(=O)c1C (single isomer, unassigned) [Example 268, 5-(2-(4-(3-hydroxy-3-(trifluoromethyl)azetidin-1-yl)cyclohexyl)-6-isopropyl-4H-pyrrolo[3,2-d]thiazol-5-yl)-1,3,4-trimethylpyridin-2(1H)-one] | 7.39 | 7.19 | < 4.30 |
| CCc1c(-c2cc(OC)c3ncnn3c2)[nH]c2sc(C3CCC(N4CC5(COC5)C4)CC3)nc12 (single isomer, unassigned) [Example 269, 6-(4-(6-ethyl-5-(8-methoxy-[1,2,4]triazolo[1,5-a]pyridin-6-yl)-4H-pyrrolo[3,2-d]thiazol-2-yl)cyclohexyl)-2-oxa-6-azaspiro[3.3]heptane] | 8.37 | 8.59 | 5.20 |
| CCc1c(-c2cc(OC)c3ncnn3c2)[nH]c2sc(C3CCC(N4CC5(COC5)C4)CC3)nc12 (single isomer, unassigned) [Example 270, 6-(4-(6-ethyl-5-(8-methoxy-[1,2,4]triazolo[1,5-a]pyridin-6-yl)-4H-pyrrolo[3,2-d]thiazol-2-yl)cyclohexyl)-2-oxa-6-azaspiro[3.3]heptane] | 8.05 | 7.85 | 5.46 |
| CCc1c(-c2cc(OC)c3ncnn3c2)[nH]c2sc(C3CCC(NC4COC4)CC3)nc12 (single isomer, unassigned) [Example 271, N-(4-(6-ethyl-5-(8-methoxy-[1,2,4]triazolo[1,5-a]pyridin-6-yl)-4H-pyrrolo[3,2-d]thiazol-2-yl)cyclohexyl) oxetan-3-amine] | 9.02 | 8.71 | 5.34 |
| CCc1c(-c2cc(OC)c3ncnn3c2)[nH]c2sc(C3CCC(NC4COC4)CC3)nc12 (single isomer, unassigned) [Example 272, N-(4-(6-ethyl-5-(8-methoxy-[1,2,4]triazolo[1,5-a]pyridin-6-yl)-4H-pyrrolo[3,2-d]thiazol-2-yl)cyclohexyl) oxetan-3-amine] | 6.86 | 6.91 | < 4.30 |
| COc1cc(-c2[nH]c3sc(C4CCC(NC5COC5)CC4)nc3c2C)cn2ncnc12 (single isomer, unassigned) [Example 273, N-(4-(5-(8-methoxy-[1,2,4]triazolo[1,5-a]pyridin-6-yl)-6-methyl-4H-pyrrolo[3,2-d]thiazol-2-yl)cyclohexyl)oxetan-3-amine] | 7.86 | 7.58 | 5.26 |
| COc1cc(-c2[nH]c3sc(C4CCC(N5CCNC(=O)C5)CC4)nc3c2C)cn2ncnc12 (single isomer, unassigned) [Example 275, 4-(4-(5-(8-methoxy-[1,2,4]triazolo[1,5-a]pyridin-6-yl)-6-methyl-4H-pyrrolo[3,2-d]thiazol-2-yl)cyclohexyl)piperazin-2-one] | 6.38 | 6.29 | < 4.30 |
| COc1cc(-c2[nH]c3sc(C4CCC(N5CCNC(=O)C5)CC4)nc3c2C)cn2ncnc12 (single isomer, unassigned) [Example 276, 4-(4-(5-(8-methoxy-[1,2,4]triazolo[1,5-a]pyridin-6-yl)-6-methyl-4H-pyrrolo[3,2-d]thiazol-2-yl)cyclohexyl)piperazin-2-one] | 6.01 | < 5.51 | < 4.30 |
| Cc1c(-c2[nH]c3sc(C(=O)NC4CCC(N(C)C)CC4)nc3c2C(C)C)cn2ncnc2c1C (single isomer, unassigned) [Example 368, 5-(7,8-dimethyl-[1,2,4]triazolo[1,5-a]pyridin-6-yl)-N-(4-(dimethylamino)cyclohexyl)-6-isopropyl-4H-pyrrolo[3,2-d]thiazole-2-carboxamide] | 7.98 | 7.55 | 5.26 |
| Cc1c(-c2[nH]c3sc(C(=O)NC4CCC(N(C)C)CC4)nc3c2C(C)C)cn2ncnc2c1C (single isomer, unassigned) [Example 369, 5-(7,8-dimethyl-[1,2,4]triazolo[1,5-a]pyridin-6-yl)-N-(4-(dimethylamino)cyclohexyl)-6-isopropyl-4H-pyrrolo[3,2-d]thiazole-2-carboxamide] | 7.74 | 7.48 | 4.33 |
| COc1cc(-c2[nH]c3sc(C4CCNCC4)nc3c2C(C)C)cn2ncnc12 [Example 1, 6-isopropyl-5-(8-methoxy-[1,2,4]triazolo[1,5-a]pyridin-6-yl)-2-(piperidin-4-yl)-4H-pyrrolo[3,2-d]thiazole] | 8.70 | 8.09 | 6.12 |
| Cc1cc(-c2[nH]c3sc(C4CCNCC4)nc3c2C(C)C)cn2ncnc12 [Example 2, 6-isopropyl-5-(8-methyl-[1,2,4]triazolo[1,5-a]pyridin-6-yl)-2-(piperidin-4-yl)-4H-pyrrolo[3,2-d]thiazole] | 8.64 | 8.24 | 5.18 |
